According to patent US20090274645A1, “GALL MIDGE PHEROMONE MIXTURE” (priority 2006, published 2009):
Entries after “also recorded” stand apart in the source; their conditions may differ. Where two headings read alike, the source gives them in different places. Marks after values point to notes of the source that are not given here.

Tests used:
[1] = system: male Hessian flies (antennal responses); conditions: Hillbur et al unpublished, cited from earlier work; for elicit antennal responses in male Hessian flies: GC-EAD; for known to elicit antennal responses (mark in Table 2): earlier GC-EAD
[2] = system: male Hessian fly antennae; assay: GC-EAD recordings of male antennal responses; design: species or system Mayetiola destructor; conditions: for antennal responses to compounds in female gland extract: GC-EAD of female Hessian fly extract (20 female equivalents); for antennal responses in males to synthetic compounds: GC-EAD, whole males mounted
Text: Coupled gas chromatographic-electroantennographic detection (GC-EAD, Arn et al 1975) was used to analyse female gland extracts. GC-EAD is an efficient tool to determine which compounds in an extract that the male antennae can perceive, by use of the highly specific olfactory receptor neurons. In a CC-EAD set-up (FIG. 3), the effluent of the GC column is split between the flame ionisation detector (FID) of the CC and the antennal detector (EAD). The GC separates the compounds in the extract over time and the compounds are detected by the FID. Simultaneously, the eluting compounds also pass the male antennae via a constant charcoal-filtered and humidified air stream. The male antennae are connected to two electrodes and, if the antennae perceive a compound, neural signals are generated and these signals are recorded as an electroantennogram (EAG). Since the olfactory receptors on the antennae are highly specific, they will more or less exclusively respond to the pheromone compounds in the extract. In addition to pheromone extracts, GC-EAD can be used to analyse all sorts of compound blends, e.g. host volatile collections and synthetic pheromone compounds. Irrespective of what kind of substances that are analysed, simultaneous recordings from the FID and the EAD give information on which compounds in the blend that are interesting for chemical identification and/or behavioural testing.
In addition to gland extracts, GC-EAD was used to analyse seven synthetic compounds (Table 2).
A Hewlett-Packard 6890 GC (Palo Alto, Calif., USA) with flame ionization detection and an Innowax column (30 m×0.25 mm ID, H-P) was used for the GC-EAD recordings. The column was programmed from 80° C./2 min to 220° C. at 10° C./min. Since male Hessian fly antennae are very sensitive to desiccation whole male bodies instead of excised antennae were mounted in an antenna holder (JoAC, Lund, Sweden) (FIG. 4). The antennal holder is made of Plexiglas with two wells connected to an amplifier by gold wire electrodes and males were mounted in the antennal holder as described by Hillbur et al (2001). The antennae were exposed to a charcoal-filtered and humidified air stream at a rate of ca 0.3 m/s through a glass tube (8 mm diameter). The signals from the antennae were amplified (JoAC) before they were recorded and analysed with ElectroAntennoGraphy software (Syntech, Hilversum, The Netherlands).

[3] = system: male Hessian flies; assay: Y-tube olfactometer two-choice bioassays; type: in vivo, Mayetiola destructor
Text: The attractiveness of different synthetic pheromone blends and female gland extracts were studied in a mobile glass Y-tube olfactometer, (FIG. 5a). The arms of the Y-tube were 14 cm long, the stem 12.5 cm and the inner diameter was 2.2 cm. Charcoal-filtered and humidified air was pumped (Micro pump NMP 30 KNDC, 12 V, KNF Neuberger, Germany) through Teflon tubes and entered each arm via a custom made 9.5 cm long glass tube, (Humi Glas, Södra Sandby, Sweden) (FIG. 5b). […] In the centre of the glass tube was a glass rod (ca 1 cm long; 0.5 cm diameter) containing a centred small hole. During experiments, the stimulus was applied on a small piece of filter paper (1.5×0.5 cm) attached to a ca 1.5 cm long steel wire. The steel wire was placed in the hole of the glass rod to position the stimulus in the centre of the tube. […]
Six different two-choice bioassays were performed to evaluate differences in attractiveness of the main pheromone component (abbreviated: 1), 2S-E10-13:OAc, a three-component blend (abbreviated: 3) consisting of 2S-E10-13:OAc, 2S-E10-13:OH and 2S-13:OAc, and two different four-component blends, both consisting of the compounds included in the three-component blend but with either 2S-E8-E10-13:OAc (abbreviated: 4E) or 2S-Z8-E10-13:OAc (abbreviated: 4Z) added. […] Data from the […] bioassays were analysed by chi-square tests.

[4] = system: male Hessian flies; conditions: wind tunnel, Harris and Foster (1991); cited from earlier work
[5] = system: male Hessian flies; conditions: field study, main compound alone, cited from earlier work

## CCCCCCCCCCC[C@H](C)OC(C)=O [2S-13:OAc, (2S)-tridecan-2-yl acetate]
[1]
  elicit antennal responses in male Hessian flies: elicit antennal responses
  known to elicit antennal responses (mark in Table 2): (2S-13:OAc) *
[2]
  antennal responses to compounds in female gland extract: antennal responses
  antennal responses in males to synthetic compounds: elicited antennal responses; also recorded: responded

## CC/C=C/C=C/CCCCC[C@H](C)OC(C)=O [2S-E8-E10-13:OAc, (2S,8E,10E)-8,10-tridecadien-2-yl acetate]
[2]
  antennal responses in males to synthetic compounds: elicited antennal responses; also recorded: males respond; also recorded: responded

## CC/C=C/CCCCCCC[C@H](C)OC(C)=O [2S-E10-13:OAc, (2S,10E)-10-tridecen-2-yl acetate]
[3]; Y-tube, main component alone versus blank
  responding males attracted when compared to blank: over 90%
[3]; blank-1 bioassay, 10 ng, p<0.001
  attractiveness to males versus blank: significantly more attracted
[1]
  elicit antennal responses in male Hessian flies: elicit antennal responses
  known to elicit antennal responses (mark in Table 2): (2S-E10-13:OAc) *
[4]
  males that contacted the odour source: 56%
[5]
  catch of male Hessian flies in the field: did not catch any male Hessian flies
[5]; listed as main component
  catch of male Hessian flies in the field: did not catch any males
[2]
  antennal responses to compounds in female gland extract: antennal responses
  antennal responses in males to synthetic compounds: elicited antennal responses; also recorded: responded

## CC/C=C/CCCCCCC[C@H](C)O [2S-E10-13:OH, (2S,10E)-10-tridecen-2-ol]
[1]
  elicit antennal responses in male Hessian flies: elicit antennal responses
  known to elicit antennal responses (mark in Table 2): (2S-E10-13:OH) *
[2]
  antennal responses to compounds in female gland extract: antennal responses
  antennal responses in males to synthetic compounds: responded
[2]; listed as 2S-E0-13:OH
  antennal responses in males to synthetic compounds: elicited antennal responses

## CCCC/C=C/CCCCCCC[C@H](C)OC(C)=O [2S-E10-15:OAc, (2S,10E)-10-pentadecen-2-yl acetate]
[2]
  antennal responses in males to synthetic compounds: did not elicit antennal responses; also recorded: No responses were recorded

## CC/C=C/CCCCCCCCC[C@H](C)OC(C)=O [2S-E12-15:OAc, (2S,12E)-12-pentadecen-2-yl acetate]
[2]
  antennal responses in males to synthetic compounds: did not elicit antennal responses; also recorded: No responses were recorded

## CC/C=C/C=C\CCCCC[C@H](C)OC(C)=O [2S-Z8-E10-13:OAc, (2S,8Z,10E)-8,10-tridecadien-2-yl acetate]
[2]
  antennal responses in males to synthetic compounds: elicited antennal responses; also recorded: males respond; also recorded: responded

## CC/C=C\CCCCCCC[C@H](C)OC(C)=O [2S-Z10-13:OAc]
[2]
  antennal responses to compounds in female gland extract: antennal responses
  antennal responses in males to synthetic compounds: a response was recorded
[2]; listed as 23-Z10-13:OAc
  antennal responses to compounds in female gland extract: respond
